According to US11655243B2, “Pyridine and pyrazine derivatives as preferential cannabinoid 2 agonists” (HOFFMANN-LA ROCHE INC., priority 2018, dated 2023):

What follows are compounds tested against human CNR2 receptors (CB2 receptor) (Homo sapiens (Human), UniProt P34972) (assay: Radioligand binding assay, human CB2 (CNR2)). Conditions: not given.
Sequence of human CNR2 receptors (CB2 receptor) (P34972 whole entry): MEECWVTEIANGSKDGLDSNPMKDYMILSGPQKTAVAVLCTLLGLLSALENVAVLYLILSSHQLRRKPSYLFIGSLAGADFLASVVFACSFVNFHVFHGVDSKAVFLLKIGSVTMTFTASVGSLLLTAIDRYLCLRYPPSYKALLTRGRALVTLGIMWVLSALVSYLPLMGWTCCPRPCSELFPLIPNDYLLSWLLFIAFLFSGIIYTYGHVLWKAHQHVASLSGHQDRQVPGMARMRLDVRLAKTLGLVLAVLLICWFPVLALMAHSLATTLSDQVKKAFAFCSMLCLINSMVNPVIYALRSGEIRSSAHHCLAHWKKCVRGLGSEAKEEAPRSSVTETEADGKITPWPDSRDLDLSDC
Protocol: Radioligand Binding Assay
The affinity of the compounds of the invention for cannabinoid CB1 receptors was determined using recommended amounts of membrane preparations (PerkinElmer) of human embryonic kidney (HEK) cells expressing the human CNR1 or CNR2 receptors in conjunction with 1.5 or 2.6 nM [3H]-CP-55,940 (Perkin Elmer) as radioligand, respectively. Binding was performed in binding buffer (50 mM Tris, 5 mM MgCl2, 2.5 mM EDTA, and 0.5% (wt/vol) fatty acid free BSA, pH 7.4 for CB1 receptor and 50 mM Tris, 5 mM MgCl2, 2.5 mM EGTA, and 0.1% (wt/vol) fatty acid free BSA, pH 7.4 for CB2 receptor) in a total volume of 0.2 ml for 1 h at 30° C. shaking. The reaction was terminated by rapid filtration through microfiltration plates coated with 0.5% polyethylenimine (UniFilter GFB filter plate; Packard). Bound radioactivity was analyzed for Ki using nonlinear regression analysis (Activity Base, ID Business Solution, Limited), with the Kd values for [3H]CP55,940 determined from saturation experiments. The compounds of formula (I) show an excellent affinity for the CB2 receptor.
The compounds according to formula (I) have an activity in the above assay (Ki) between 0.5 nM and 10 μM. Particular compounds of formula (I) have an activity in the above assay (Ki) between 0.5 nM and 3 μM. Other particular compounds of formula (I) have an activity in the above assay (Ki) between 0.5 nM and 100 nM.
Work on `CCC(CC)(NC(=O)c1ccc(N2CC(OC)C2)c(OC[C@H]2C[C@@H]2CO)n1)C(=O)OCF` (stereo in doubt) [Example 12, (+)-trans-Fluoromethyl 2-ethyl-2-{[6-{[-2-(hydroxymethyl)cyclopropyl]methoxy}-5-(3-methoxyazetidin-1-yl)pyridine-2-carbonyl]amino}butanoate] yielded a Ki of 0.4 nM. In the case of `CCC(CC)(NC(=O)c1ccc(N2CC(O)C2)c(OC[C@H]2C[C@@H]2COCc2ccccc2)n1)C(=O)OCCCF` (racemic) [Example 22, (Rac)-trans-3-Fluoropropyl 2-[[6-[[-2-(benzyloxymethyl)cyclopropyl]methoxy]-5-(3-hydroxyazetidin-1-yl)pyridine-2-carbonyl]amino]-2-ethyl-butanoate], the Ki is reported as 755 nM.

Same assay, conditions: membranes of HEK cells expressing human CNR2, 2.6 nM [3H]-CP-55,940 radioligand; read-out: Binding assay human CB2 Ki
`CCC(CC)(NC(=O)c1ccc(N2CC(F)C2)c(OC[C@@H]2C[C@H]2CO)n1)C(=O)N[C@H](CO)CC(C)C` (single isomer, unassigned) [Example 27, N-[1-Ethyl-1-[[(1S)-1-(hydroxymethyl)-3-methyl-butyl]carbamoyl]propyl]-5-(3-fluoroazetidin-1-yl)-6-[[(1R,2R)-2-(hydroxymethyl)cyclopropyl]methoxy]pyridine-2-carboxamide or N-[1-ethyl-1-[[(1S)-1-(hydroxymethyl)-3-methyl-butyl]carbamoyl]propyl]-5-(3-fluoroazetidin-1-yl)-6-[[(1S,2S)-2-(hydroxymethyl)cyclopropyl]methoxy]pyridine-2-carboxamide] showed a Ki of 4150 nM. Work on `CCC(CC)(NC(=O)c1ccc(N2CC(OC)C2)c(OC[C@H]2C[C@@H]2CO)n1)C(=O)OCCCF` [Example 15, 3-Fluoropropyl 2-ethyl-2-{[6-{[(1S,2S)-2-(hydroxymethyl)cyclopropyl]methoxy}-5-(3-methoxyazetidin-1-yl)pyridine-2-carbonyl]amino}butanoate] yielded a Ki of 0.7 nM. `CCC(CC)(NC(=O)c1ccc(N2CC(OC)C2)c(OC[C@H]2C[C@@H]2CO)n1)C(=O)OCCF` (stereo in doubt) [Example 13, (+)-trans-2-Fluoroethyl 2-ethyl-2-{[6-{[-2-(hydroxymethyl)cyclopropyl]methoxy}-5-(3-methoxyazetidin-1-yl)pyridine-2-carbonyl]amino}butanoate] was tested, and the Ki was 0.3 nM. Work on `C=CC(C=C)(NC(=O)c1ccc(N2CC(OC)C2)c(OC[C@H]2C[C@@H]2CO)n1)C(=O)OCCCF` [Example 20, 3-Fluoropropyl 2-[6-[[(1S,2S)-2-(hydroxymethyl)cyclopropyl]methoxy]-5-(3-methoxyazetidin-1-yl)pyridine-2-carbonylamino]-2-vinyl-but-3-enoate] yielded a Ki of 525 nM. Work on `CCOC(=O)C(CC)(CC)NC(=O)c1ccc(N2CC(OC)C2)c(OC[C@@H]2C[C@@H]2COCF)n1` (mixture of isomers) [Example 5, Ethyl 2-ethyl-2-{[6-({(1R,2S)-2-[(fluoromethoxy)methyl]cyclopropyl}methoxy)-5-(3-methoxyazetidin-1-yl)pyridine-2-carbonyl]amino}butanoate and ethyl 2-ethyl-2-{[6-({(1S,2R)-2-[(fluoromethoxy)methyl]cyclopropyl}methoxy)-5-(3-methoxyazetidin-1-yl)pyridine-2-carbonyl]amino}butanoate] yielded a Ki of 4.6 nM. `[2H]C([2H])(OC(=O)C(CC)(CC)NC(=O)c1ccc(N2CC(OC)C2)c(OC[C@H]2C[C@@H]2CO)n1)C([2H])([2H])C([2H])([2H])OS(=O)(=O)c1ccc(C)cc1` [Example 24, [1,1,2,2,3,3-Hexadeuterio-3-(p-tolylsulfonyloxy)propyl] 2-ethyl-2-[[6-[[(1S,2S)-2-(hydroxymethyl)cyclopropyl]methoxy]-5-(3-methoxyazetidin-1-yl)pyridine-2-carbonyl]amino]butanoate] was tested, and the Ki was 65.5 nM. `CCC(CC)(NC(=O)c1ccc(N2CCCC2)c(OCC2(CO)COC2)n1)C(=O)OCF` [Example 33, Fluoromethyl 2-ethyl-2-[[6-[[3-(hydroxymethyl)oxetan-3-yl]methoxy]-5-pyrrolidin-1-yl-pyridine-2-carbonyl]amino]butanoate] showed a Ki of 348 nM. `CCOC(=O)C(CC)(CC)NC(=O)c1cc(F)c(N2CC(OC)C2)c(OCC2CC2)n1` [Example 7, Ethyl 2-{[6-(cyclopropylmethoxy)-4-fluoro-5-(3-methoxyazetidin-1-yl)pyridine-2-carbonyl]amino}-2-ethylbutanoate] showed a Ki of 2.5 nM.
